Laboratory results taken from patent US9233107B2, “Compositions and methods for the treatment of progressive multifocal leukoencephalopathy (PML)” (Biogen MA Inc., priority 2007, dated 2016).
pIC50: −log10 of the molar value. Like-named read-outs stand apart in the source and are kept apart here.

Legend:
JCV strain Mad1/SVEΔ = test: microbe, parasite or virus in culture; assay type: cell-based, JC polyomavirus (JCV); settings: for % Inhibition (total #JCV+) @10 uM: SV40 transformed glial cells, Mad-1/SVEΔ JCV; for % Inhibition (% JCV+) @10 uM: infection rate, JCV+ cells normalised to total cells
Protocol: (§1) SV40 transformed glial cells were seeded in 10% FBS media. The cells were seeded at 2000 cells per well in 75 μl of media per well. On day 2, the media was removed and replaced by 35 μl of a 1× concentrated drug aliquot combined with a 100× diluted JCV Turbo aliquot in 35 μl of 2% FBS media (JCV Turbo is a hybrid Mad-1/SVEΔ virus constructed by insertion of the regulatory region of SV40 into the regulatory region of the Mad-1 strain of JCV (Mad-1/SVE), Vacante et al., Virology 1989, 170: 353-361). The cells were incubated for an hour, after which another 65 uL aliquot of 1× concentrated drug in 2% FBS was added. On day 5 the cells were stained with DAPI (for total cell number) and with a mouse monoclonal antibody against SV40 VP1, which cross reacts with the JCV VP1 protein. […] The information is tabulated as % inhibition (as measured by the number and percentage of JCV positive cells).
(§2) JCV Infectivity Assay: SVG-A cells were seeded at 2,000 cells/well/0.075 ml of culture media in 96 flat-bottom well plate (Corning, N.Y.). The next day compounds were prepared in assay medium (2% heat-inactivated fetal bovine serum, 4 mM L-glutamine, 1×MEM). A master viral plate was prepared by mixing equal volumes of [2×] compound and [2×] diluted virus for the final 1× concentration of the compound and the virus. The plate containing cells was gently inverted and shaken to remove media. From the master plate, 0.035 ml compound/virus was added to designated wells. The cells were incubated with the compound/virus mixture for 60 minutes in a humidified 37° C. CO2 incubator. At that time final concentration of the drug in media was added to designated wells to bring the final volume up to 0.1 ml/well. The plates were incubated for an additional three days, the cells were then washed once with 1×PBS, and fixed in 2% paraformaldehyde/1×PBS for 30 minutes at room temperature. The fixative was removed and the cells were solubilized with 0.5% Triton X100 in PBS for an additional 30 minutes. Infection by Mad-1/SVEΔ virus was visualized by staining with PAB597, a monoclonal antibody against the major capsid protein VP1, the cells were incubated with 0.05 ml of PAB597 (2 μg/ml in 1×PBS) for 60 minutes at 37° C. Following a wash step with 1×PBS, primary antibody was detected with an Alexa-Fluor 488-labeled goat anti-mouse secondary antibody at 1:100 dilution in 1×PBS, cells were counterstained with DAPI at 1 μg/ml (0.05 ml/well) for 30 minutes at 37° C. Cells were washed with 1×PBS and 0.1 ml 1×PBS was added to cells. Field images of each well were acquired and analyzed using the Cellomics ArrayScan (Thermo Scientific Inc, Waltham, Mass.) using the Target Activation software. […] The cells are seeded at 4,000 cells/well/0.075 ml of culture media in 96 flat-bottom well plate (Corning). The culture media is used for the infection. The length of the infection is six to ten days (instead of the three days for SVG-A cells).
Calculations: The rate of JCV infection was calculated by normalizing the number of JCV infected cells by the total number of nucleated cells as % JCV^+ cells=((total # VP1^+ cells)/(total # DAPI^+ cells))*100%. The % of viral inhibition by a compound was calculated using a JCV infection rate instead of using total number of JCV infected cells (e.g., VP1^+ cells).

SVG-A cells = test: Total cell number (DAPI+ events) / cytotoxicity in the JCV infectivity assay; settings: for % Inhibition total Cell Number @10 uM: cytotoxicity, DAPI count; for inhibition at 10 µM: Homo sapiens, SVG-A, read-out: % Inhibition total Cell Number @10 uM
Protocol: as §1, §2
The primary assay employed an SVG-A cell line and JCV Mad1/SVEΔ viral strain.

[1] = JC polyomavirus, Glial cell, read-out: % Inhibition (total #JCV+) @10 uM
[2] = JC polyomavirus, SVG-A, read-out: % Inhibition (% JCV+) @10 uM

| Compound | % Inhibition (total #JCV+) @10 uM (JCV strain Mad1/SVEΔ) | % Inhibition (% JCV+) @10 uM (JCV strain Mad1/SVEΔ) | % Inhibition total Cell Number @10 uM (SVG-A cells) | inhibition at 10 µM (JCV strain Mad1/SVEΔ; [1]) | inhibition at 10 µM (JCV strain Mad1/SVEΔ; [2]) | inhibition at 10 µM (SVG-A cells) | further results |
| --- | --- | --- | --- | --- | --- | --- | --- |
| C[C@@H]1CC[C@@]2(OC1)O[C@H]1C[C@H]3[C@@H]4CC[C@H]5C[C@@H](O)CC[C@]5(C)C4=CC[C@]3(C)[C@H]1[C@@H]2C [3beta-HYDROXYISOALLOSPIROST-9(11)-ENE] | 25% | 21% | 3% | – | – | – | – |
| CCCCOc1cc(CC2CNC(=O)N2)ccc1OC (stereo not shown) [4-(3-BUTOXY-4-METHOXYBENZYL)IMIDAZOLIDIN-2-ONE] | – | – | – | 48% | 42% | 12% | – |
| O=C(O)c1cc([N+](=O)[O-])ccc1NCCCc1ccccc1 [5-NITRO-2-PHENYLPROPYLAMINOBENZOIC ACID] | 14% | 21% | −9% | – | – | – | – |
| O=c1cc(-c2ccc(O)cc2)oc2ccc(O)cc12 [6,4′-DIHYDROXYFLAVONE] | – | – | – | 18% | 22% | -5% | – |
| COc1ccc([C@@H](C)C(=O)c2ccc(O)cc2O)cc1 [(R)-ANGOLENSIN] | 18% | 22% | −5% | – | – | – | – |
| COc1ccc2c(c1)c(CC(=O)OCC(=O)O)c(C)n2C(=O)c1ccc(Cl)cc1 [ACEMETACIN] | – | – | – | 32% | 38% | -8% | – |
| CC(=O)OCC(=O)[C@@]12OC3(CCCC3)O[C@@H]1C[C@H]1[C@@H]3CCC4=CC(=O)C=C[C@]4(C)[C@@]3(F)[C@@H](O)C[C@@]12C [AMCINONIDE] | – | – | – | 16% | 25% | -11% | – |
| NCCOB(c1ccccc1)c1ccccc1 [AMINOETHOXYDIPHENYLBORANE] | – | – | – | 25% | 21% | 3% | – |
| C[C@H]1C[C@H]2[C@@H]3CCC4=CC(=O)C=C[C@]4(C)[C@@]3(F)[C@@H](O)C[C@]2(C)[C@@]1(O)C(=O)CO [BETAMETHASONE] | – | – | – | 34% | 24% | 14% | – |
| CCOc1nc2cccc(C(=O)OC(C)OC(=O)OC3CCCCC3)c2n1Cc1ccc(-c2ccccc2-c2nn[nH]n2)cc1 (stereo not shown) [CANDESARTAN CILEXTIL] | 54% | 44% | 19% | – | – | – | – |
| CCCCCCCCCCCCCCCC(=O)OC[C@@H](NC(=O)C(Cl)Cl)[C@H](O)c1ccc([N+](=O)[O-])cc1 [CHLORAMPHENICOL PALMITATE] | – | – | – | 20% | 29% | -13% | – |
| O=c1cc(-c2ccccc2)oc2cc(O)cc(O)c12 [CHRYSIN] | – | – | – | 18% | 26% | -12% | – |
| COc1ccc(-c2cc(=O)c3c(O)c(OC)c(OC)c(OC)c3o2)cc1OC [DEMETHYLNOBILETIN] | 38% | 20% | 20% | – | – | – | – |
| O=C(O)Cc1ccccc1Nc1c(Cl)cccc1Cl [DICLOFENAC SODIUM] | – | – | – | 44% | 31% | 18% | pIC50 (JCV strain Mad1/SVEΔ; JC polyomavirus, SVG-A): 5.08; CC50 (SVG-A cells; human, 3 days): 30.5 µM |
| O=c1oc2ccccc2c(O)c1Cc1c(O)c2ccccc2oc1=O [DICUMAROL] | – | – | – | 36% | 35% | 3% | – |
| CC/C(=C(/CC)c1ccc(O)cc1)c1ccc(O)cc1 [DIETHYLSTILBESTROL] | – | – | – | 42% | 29% | 18% | – |
| COc1cc(C)c(C(=O)Oc2cc(C)c(C(=O)O)c(O)c2C)c(OC)c1C [DIFFRACTIC ACID] | 44% | 36% | 13% | – | – | – | pIC50 (JCV strain Mad1/SVEΔ; anti-JCV, inhibition of % JCV infected cells by 50%, full dose response, read-out: IC50): 4.84; CC50 (SVG-A cells): > 40 µM |
| COc1ccc(C(=O)c2ccccc2O)c(O)c1 [DIOXYBENZONE, 2,2′-Dihydroxy-4-methoxybenzophenone] | – | – | – | 55% | 49% | 11% | – |
